Target: MAPK14 (UniProt Q16539)
Test: Inhibition of MAPK14 Kinase Activity

MAPK14, sequence (Q16539 whole entry, looked up): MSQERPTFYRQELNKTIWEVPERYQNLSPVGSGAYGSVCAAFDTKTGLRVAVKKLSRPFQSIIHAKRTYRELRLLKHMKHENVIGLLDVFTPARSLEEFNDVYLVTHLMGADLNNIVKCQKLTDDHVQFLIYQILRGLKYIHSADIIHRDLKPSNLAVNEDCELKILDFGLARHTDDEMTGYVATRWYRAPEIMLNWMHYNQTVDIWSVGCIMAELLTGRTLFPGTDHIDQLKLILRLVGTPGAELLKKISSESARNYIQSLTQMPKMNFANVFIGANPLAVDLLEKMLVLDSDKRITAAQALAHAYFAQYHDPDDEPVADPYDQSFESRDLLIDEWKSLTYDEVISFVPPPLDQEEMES

| IC50 | SMILES |
| --- | --- |
| < 5 µM | Cn1nc(C(C)(C)C)cc1NC(=O)Nc1ccc(CN2CCN(C(=O)c3c(F)cccc3Cl)CC2)cc1 |
| < 5 µM | Cc1ccc(-n2nc(C(C)(C)C)cc2NC(=O)Nc2cc(F)cc(OC3CCN(C(=O)c4ccccc4F)CC3)c2)cc1 |
| < 5 µM | Cn1nc(C(C)(C)C)cc1NC(=O)Nc1cc(F)cc(OC2CCN(C(=O)c3ccccc3C(F)(F)F)CC2)c1 |
| < 5 µM | Cn1nc(C(C)(C)C)cc1NC(=O)Nc1ccc(OC2CCN(C(=O)Oc3ccccc3C(F)(F)F)CC2)cc1 |
| < 5 µM | Cn1nc(C(C)(C)C)cc1NC(=O)Nc1cc(F)cc(OC2CCN(C(=O)c3cccc(CN4CCOCC4)c3)CC2)c1 |
| < 5 µM | CC(C)(C)c1cc(NC(=O)Nc2ccc(OC3CCN(C(=O)c4c(F)cccc4F)CC3)cc2)[nH]n1 |
| < 5 µM | Cn1nc(C(C)(C)C)cc1NC(=O)Nc1cccc(OC2CCN(C(=O)c3ccc(Cl)s3)CC2)c1 |
| < 5 µM | Cc1ccc(-n2nc(C(C)(C)C)cc2NC(=O)Nc2ccc(OC3CCN(C(=O)C4CC4)CC3)cc2)cc1 |
| < 5 µM | CC(C)(C)c1cc(NC(=O)Nc2ccc(OC3CCN(C(=O)c4c(Cl)cccc4Cl)CC3)cc2)[nH]n1 |
| < 5 µM | Cn1nc(C(C)(C)C)cc1NC(=O)Nc1cccc(OC2CCN(C(=O)c3c(Cl)cccc3Cl)CC2)c1 |
| < 5 µM | Cc1ccsc1C(=O)N1CCC(Oc2cc(F)cc(NC(=O)Nc3cc(C(C)(C)C)nn3C)c2)CC1 |
| < 5 µM | Cn1nc(C(C)(C)C)cc1NC(=O)Nc1ccc(CN2CCN(C(=O)c3ccc(C(F)(F)F)cc3)CC2)cc1 |
| < 5 µM | Cn1nc(C(C)(C)C)cc1NC(=O)Nc1ccc(OC2CCN(C(=O)c3sccc3Cl)CC2)cc1 |
| < 5 µM | Cn1nc(C(C)(C)C)cc1NC(=O)Nc1ccc(OC2CCN(C(=O)c3c(Cl)cccc3Cl)CC2)cc1 |
| < 5 µM | Cc1ccc(-n2nc(C(C)(C)C)cc2NC(=O)Nc2ccc(N3CCN(C(=O)c4c(F)cccc4F)CC3)cc2)cc1 |
| < 5 µM | Cn1nc(C(C)(C)C)cc1NC(=O)Nc1cc(F)cc(OC2CCN(C(=O)c3c(Cl)cncc3Cl)CC2)c1 |
| < 5 µM | Cc1ccc(-n2nc(C(C)(C)C)cc2NC(=O)Nc2ccc(OC3CCN(C(=O)c4c(Cl)cccc4Cl)CC3)cc2)cc1 |
| < 5 µM | Cc1ccc(-n2nc(C(C)(C)C)cc2NC(=O)Nc2ccc(CN3CCN(C(=O)c4c(Cl)cccc4Cl)CC3)cc2)cc1 |
| < 5 µM | Cn1nc(C(C)(C)C)cc1NC(=O)Nc1cc(F)cc(OC2CCN(C(=O)c3ccccc3OC(F)(F)F)CC2)c1 |
| < 5 µM | Cn1nc(C(C)(C)C)cc1NC(=O)Nc1ccc(CN2CCN(C(=O)c3c(Cl)cccc3Cl)CC2)cc1 |
| < 5 µM | Cn1nc(C(C)(C)C)cc1NC(=O)Nc1cc(F)cc(OC2CCN(C(=O)c3cccc4cc[nH]c34)CC2)c1 |
| < 5 µM | Cn1nc(C(C)(C)C)cc1NC(=O)Nc1cccc(C2CCN(C(=O)c3c(Cl)cccc3Cl)CC2)c1 |

| IC50 | SMILES |
| --- | --- |
| < 5 µM | Cc1ccc(-n2nc(C(C)(C)C)cc2NC(=O)Nc2cc(F)cc(OC3CCN(C(=O)c4sccc4C)CC3)c2)cc1 |
| < 5 µM | Cn1nc(C(C)(C)C)cc1NC(=O)Nc1cccc(OC2CCN(C(=O)c3cc[nH]c3)CC2)c1 |
| < 5 µM | Cn1nc(C(C)(C)C)cc1NC(=O)Nc1cc(F)cc(OC2CCN(C(=O)C3(C)CC3)CC2)c1 |
| < 5 µM | COc1cccc(F)c1C(=O)N1CCC(Oc2cccc(NC(=O)Nc3cc(C(C)(C)C)nn3C)c2)CC1 |
| < 5 µM | Cn1nc(C(C)(C)C)cc1NC(=O)Nc1ccc(OC2CCN(C(=O)c3cccnc3Cl)CC2)cc1 |
| < 5 µM | Cn1nc(C(C)(C)C)cc1NC(=O)Nc1ccc(CN2CCN(C(=O)c3cc(Cl)sc3Cl)CC2)cc1 |
| < 5 µM | Cn1nc(C(C)(C)C)cc1NC(=O)Nc1ccc(OC2CCN(C(=O)c3ccsc3)CC2)cc1 |
| < 5 µM | Cn1nc(C(C)(C)C)cc1NC(=O)Nc1ccc(N2CCN(C(=O)c3c(Cl)cccc3Cl)CC2)cc1 |
| < 5 µM | Cc1ccc(-n2nc(C(C)(C)C)cc2NC(=O)Nc2ccc(N3CCN(S(=O)(=O)C(C)C)CC3)cc2)cc1 |
| < 5 µM | Cc1ccc(-n2nc(C(C)(C)C)cc2NC(=O)Nc2ccc(N3CCN(S(=O)(=O)C4CC4)CC3)cc2)cc1 |
| < 5 µM | Cn1nc(C(C)(C)C)cc1NC(=O)Nc1ccc(CN2CCN(C(=O)c3ccc(F)cc3F)CC2)c(F)c1 |
| < 5 µM | Cn1nc(C(C)(C)C)cc1NC(=O)Nc1cccc(OC2CCN(C(=O)c3sccc3Cl)CC2)c1 |
| < 5 µM | CC(C)n1nc(C(C)(C)C)cc1NC(=O)Nc1ccc(CN2CCN(C(=O)c3c(Cl)cccc3Cl)CC2)cc1 |
| < 5 µM | Cn1nc(C(C)(C)C)cc1NC(=O)Nc1ccc(OC2CCN(C(=O)c3c(F)cccc3Cl)CC2)cc1 |
| < 5 µM | CC(=O)N1CCN(Cc2ccc(NC(=O)Nc3cc(C(C)(C)C)nn3-c3ccc(C)cc3)cc2)CC1 |
| < 5 µM | Cn1nc(C(C)(C)C)cc1NC(=O)Nc1cccc(OC2CCN(C(=O)c3ccc(F)cc3F)CC2)c1 |
| 0.091 µM | Cc1ccc(-n2nc(C(C)(C)C)cc2NC(=O)Nc2ccc(N3CCN(C(=O)C(C)(C)C)CC3)cc2)cc1 |
| < 5 µM | Cc1cc(C(=O)N2CCC(Oc3cc(F)cc(NC(=O)Nc4cc(C(C)(C)C)nn4C)c3)CC2)c(C)[nH]1 |
| < 5 µM | CN(C)CCOc1ccc(C(=O)N2CCC(Oc3cc(F)cc(NC(=O)Nc4cc(C(C)(C)C)nn4C)c3)CC2)cc1 |
| < 5 µM | Cc1ccc(-n2nc(C(C)(C)C)cc2NC(=O)Nc2ccc(CN3CCN(C(=O)C4CC4)CC3)cc2)cc1 |
| < 5 µM | Cn1nc(C(C)(C)C)cc1NC(=O)Nc1cc(F)cc(OC2CCN(C(=O)c3cc[nH]c3)CC2)c1 |
| < 5 µM | CCCC(C)(C)C(=O)N1CCN(c2ccc(NC(=O)Nc3cc(C(C)(C)C)nn3-c3ccc(C)cc3)cc2)CC1 |

| IC50 | SMILES |
| --- | --- |
| < 5 µM | Cn1nc(C(C)(C)C)cc1NC(=O)Nc1ccc(OC2CCN(C(=O)OC(C)(C)C)CC2)cc1 |
| < 5 µM | Cn1nc(C(C)(C)C)cc1NC(=O)Nc1cccc(OC2CCN(C(=O)OCc3ccccc3)CC2)c1 |
| < 5 µM | Cn1nc(C(C)(C)C)cc1NC(=O)Nc1cccc(OC2CCN(C(=O)c3ccc(Br)s3)CC2)c1 |
| < 5 µM | Cn1nc(C(C)(C)C)cc1NC(=O)Nc1cc(F)cc(OC2CCN(C(=O)C(Cl)(Cl)Cl)CC2)c1 |
| < 5 µM | Cc1ccc(-n2nc(C(C)(C)C)cc2NC(=O)Nc2ccc(N3CCN(C(=O)CC(C)(C)C)CC3)cc2)cc1 |
| < 5 µM | Cc1ccc(-n2nc(C(C)(C)C)cc2NC(=O)Nc2ccc(N3CCN(C(=O)C4CCCNC4)CC3)cc2)cc1 (centres undefined) |
| < 5 µM | Cn1nc(C(C)(C)C)cc1NC(=O)Nc1cc(OC2CCN(C(=O)c3ccccc3Cl)CC2)cc(C(F)(F)F)c1 |
| < 5 µM | Cn1nc(C(C)(C)C)cc1NC(=O)Nc1ccc(OC2CCN(C(=O)c3c(F)cccc3F)CC2)cc1 |
| < 5 µM | Cc1ccc(-n2nc(C(C)(C)C)cc2NC(=O)Nc2ccc(CN3CCN(C(=O)c4c(F)cccc4F)CC3)cc2)cc1 |
| < 5 µM | Cc1nn(C)c(C)c1C(=O)N1CCC(Oc2ccc(NC(=O)Nc3cn(C)nc3C(C)(C)C)cc2)CC1 |
| < 5 µM | CCn1nc(C(C)(C)C)cc1NC(=O)Nc1ccc(CN2CCN(C(=O)c3c(F)cccc3F)CC2)cc1F |
| < 5 µM | Cn1nc(C(C)(C)C)cc1NC(=O)Nc1ccc(OC2CCN(C(=O)c3ccccc3C(F)(F)F)CC2)cc1 |
| < 5 µM | Cn1nc(C(C)(C)C)cc1NC(=O)Nc1cccc(OC2CCN(C(=O)c3ccccc3Cl)CC2)c1 |
| < 5 µM | Cn1nc(C(C)(C)C)cc1NC(=O)Nc1ccc(OC2CCN(C(=O)c3ccccc3F)CC2)cc1 |
| < 5 µM | Cc1ccc(-n2nc(C(C)(C)C)cc2NC(=O)Nc2ccc(N3CCN(C(=O)CC4CCCC4)CC3)cc2)cc1 |
| < 5 µM | Cn1nc(C(C)(C)C)cc1NC(=O)Nc1cccc(OC2CCN(C(=O)c3ccccc3C(F)(F)F)CC2)c1 |
| < 5 µM | CCn1nc(C(C)(C)C)cc1NC(=O)Nc1ccc(CN2CCN(C(=O)c3c(Cl)cccc3Cl)CC2)cc1F |
| < 5 µM | Cc1ccc(-n2nc(C(C)(C)C)cc2NC(=O)Nc2ccc(OCCC3CCN(C(=O)c4c(Cl)cccc4Cl)CC3)c3ccccc23)cc1 |
| < 5 µM | Cn1nc(C(C)(C)C)cc1NC(=O)Nc1cc(F)cc(OC2CCN(C(=O)C3(C)CC3(Cl)Cl)CC2)c1 (centres undefined) |
| < 5 µM | Cc1ccc(OC2CCN(C(=O)c3ccccc3Cl)CC2)cc1NC(=O)Nc1cc(C(C)(C)C)nn1C |

Source: the Kinase Knowledgebase extract (Sharma et al. 2016)
